One block for each molecule: values may come before it. Starred links: 1 amine or outer side, 2 acyl side, 3 side chain; linkers in the order of their positions; H or OH if unused. Positions of bridges follow the written chain, without caps; N, C: chain ends. Residues, ends and D or L forms follow the SMILES beside them. mXylylene = c1cc(C[*:1])cc(C[*:2])c1
Legend:
[1] = Inhibition of human Kelch-like protein extracted from Escherichia coli
Keap1/Nrf2 = Keap1/Nrf2 (Homo sapiens, UniProt Q14145); assay: Inhibition of Keap1-Nrf2 protein-protein interaction (unknown origin) by fluorescence polarization assay
Kelch-like protein 20 = target: T1, Kelch-like protein 20 (Homo sapiens, UniProt Q9Y2M5); assay: Binding affinity to KLHL20 (unknown origin) assessed as dissociation constant by fluorescence polarization assay
T1 sequence (Q9Y2M5 whole entry): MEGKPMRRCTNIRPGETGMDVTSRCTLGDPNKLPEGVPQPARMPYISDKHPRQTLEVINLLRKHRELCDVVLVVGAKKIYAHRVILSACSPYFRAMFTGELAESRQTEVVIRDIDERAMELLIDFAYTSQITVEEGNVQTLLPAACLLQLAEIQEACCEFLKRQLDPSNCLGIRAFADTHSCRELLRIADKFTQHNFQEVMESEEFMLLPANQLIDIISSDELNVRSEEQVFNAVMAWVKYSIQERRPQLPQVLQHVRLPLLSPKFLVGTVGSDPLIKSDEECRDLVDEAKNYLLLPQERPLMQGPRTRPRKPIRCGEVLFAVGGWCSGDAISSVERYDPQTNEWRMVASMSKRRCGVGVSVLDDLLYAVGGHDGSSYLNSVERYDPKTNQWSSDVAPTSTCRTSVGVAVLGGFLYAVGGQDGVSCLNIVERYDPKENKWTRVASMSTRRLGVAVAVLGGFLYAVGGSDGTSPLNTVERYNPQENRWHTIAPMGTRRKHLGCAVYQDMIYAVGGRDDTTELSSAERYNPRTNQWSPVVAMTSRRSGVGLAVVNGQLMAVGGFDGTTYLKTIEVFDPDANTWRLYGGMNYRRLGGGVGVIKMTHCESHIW

Kelch-like protein 3 = target: T2, Kelch-like protein 3 (Homo sapiens, UniProt Q9UH77); assay: Binding affinity to KLHL3 (unknown origin) assessed as dissociation constant by fluorescence polarization assay
T2 sequence (Q9UH77 whole entry): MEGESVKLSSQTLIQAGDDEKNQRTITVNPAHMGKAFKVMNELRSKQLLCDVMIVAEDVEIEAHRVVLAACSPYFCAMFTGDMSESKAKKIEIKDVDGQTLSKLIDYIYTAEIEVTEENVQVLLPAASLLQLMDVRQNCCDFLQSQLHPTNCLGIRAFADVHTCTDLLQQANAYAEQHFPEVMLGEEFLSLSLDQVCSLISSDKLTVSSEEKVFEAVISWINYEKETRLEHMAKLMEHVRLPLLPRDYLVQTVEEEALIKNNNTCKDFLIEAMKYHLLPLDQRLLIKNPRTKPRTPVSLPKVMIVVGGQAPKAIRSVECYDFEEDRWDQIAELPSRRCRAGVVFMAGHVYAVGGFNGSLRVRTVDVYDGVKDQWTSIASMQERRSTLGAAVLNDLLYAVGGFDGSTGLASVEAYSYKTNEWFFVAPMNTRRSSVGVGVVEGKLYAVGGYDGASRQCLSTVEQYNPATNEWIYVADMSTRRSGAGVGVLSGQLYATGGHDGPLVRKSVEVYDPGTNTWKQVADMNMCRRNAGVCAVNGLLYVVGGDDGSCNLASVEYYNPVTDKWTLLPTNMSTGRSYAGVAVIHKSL

Kelch-like protein 12 [2] = target: T3, Kelch-like protein 12 (Homo sapiens, UniProt Q53G59); assay: Binding affinity to KLHL12 (unknown origin) assessed as inhibition constant
T3 sequence (Q53G59 whole entry): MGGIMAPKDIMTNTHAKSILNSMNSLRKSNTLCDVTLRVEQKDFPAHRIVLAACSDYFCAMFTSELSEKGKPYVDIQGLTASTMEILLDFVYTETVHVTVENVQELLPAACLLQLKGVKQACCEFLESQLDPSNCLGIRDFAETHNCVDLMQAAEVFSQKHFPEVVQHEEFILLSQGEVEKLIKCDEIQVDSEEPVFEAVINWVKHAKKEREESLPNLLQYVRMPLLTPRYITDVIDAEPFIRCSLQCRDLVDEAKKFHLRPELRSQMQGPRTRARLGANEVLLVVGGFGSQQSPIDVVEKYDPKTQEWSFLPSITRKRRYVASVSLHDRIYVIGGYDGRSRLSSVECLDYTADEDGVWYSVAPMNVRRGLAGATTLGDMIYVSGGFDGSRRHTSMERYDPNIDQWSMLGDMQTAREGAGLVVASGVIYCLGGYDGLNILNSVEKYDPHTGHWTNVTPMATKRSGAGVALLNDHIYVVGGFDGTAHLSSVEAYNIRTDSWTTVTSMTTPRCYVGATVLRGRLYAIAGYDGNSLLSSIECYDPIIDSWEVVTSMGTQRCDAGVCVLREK

Kelch-like protein 12 [3] = target: T3, Kelch-like protein 12; assay: Binding affinity to KLHL12 (unknown origin) extracted from Escherichia coli BL21 Gold (DE3) assessed as dissociation constant by fluorescence polarization assay

Sequence of Keap1/Nrf2 (Q16236 whole entry): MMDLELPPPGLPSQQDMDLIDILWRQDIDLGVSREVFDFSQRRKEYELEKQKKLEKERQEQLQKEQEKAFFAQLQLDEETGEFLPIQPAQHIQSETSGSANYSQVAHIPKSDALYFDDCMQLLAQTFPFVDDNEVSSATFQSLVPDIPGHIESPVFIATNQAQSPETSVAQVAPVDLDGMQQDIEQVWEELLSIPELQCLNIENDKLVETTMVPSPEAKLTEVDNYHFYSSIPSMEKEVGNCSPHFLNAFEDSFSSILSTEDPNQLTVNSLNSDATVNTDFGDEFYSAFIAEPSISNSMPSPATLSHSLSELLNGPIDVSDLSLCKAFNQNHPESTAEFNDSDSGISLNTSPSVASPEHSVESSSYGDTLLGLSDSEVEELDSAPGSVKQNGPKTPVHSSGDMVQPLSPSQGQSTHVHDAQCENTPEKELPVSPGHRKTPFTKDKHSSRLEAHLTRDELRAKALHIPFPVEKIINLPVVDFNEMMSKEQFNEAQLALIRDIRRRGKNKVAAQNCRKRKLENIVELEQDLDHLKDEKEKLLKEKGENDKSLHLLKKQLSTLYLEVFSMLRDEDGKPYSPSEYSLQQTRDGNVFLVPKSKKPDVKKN
Sequence of Keap1/Nrf2 (Q14145 whole entry): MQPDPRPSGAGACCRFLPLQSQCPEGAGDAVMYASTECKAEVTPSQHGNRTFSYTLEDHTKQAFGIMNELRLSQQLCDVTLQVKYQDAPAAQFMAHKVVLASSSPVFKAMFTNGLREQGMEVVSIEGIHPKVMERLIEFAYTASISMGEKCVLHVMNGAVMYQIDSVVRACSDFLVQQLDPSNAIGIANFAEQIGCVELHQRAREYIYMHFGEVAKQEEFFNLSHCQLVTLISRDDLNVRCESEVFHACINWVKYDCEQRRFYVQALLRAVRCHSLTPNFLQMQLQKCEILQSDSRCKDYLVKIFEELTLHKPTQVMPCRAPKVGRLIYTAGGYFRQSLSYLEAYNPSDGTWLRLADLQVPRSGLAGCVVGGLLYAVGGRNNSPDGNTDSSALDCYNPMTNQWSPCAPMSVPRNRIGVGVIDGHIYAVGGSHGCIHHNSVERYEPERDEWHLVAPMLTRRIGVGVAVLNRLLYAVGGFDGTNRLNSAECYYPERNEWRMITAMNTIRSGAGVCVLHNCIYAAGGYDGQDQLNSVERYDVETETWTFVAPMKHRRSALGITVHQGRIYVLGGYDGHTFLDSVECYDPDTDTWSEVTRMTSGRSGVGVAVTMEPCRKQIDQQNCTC

Molecule: CC(C)C[C@H](NC(=O)[C@H](Cc1ccccc1)NC(=O)[C@H](CCC(=O)O)NC(=O)CNC(=O)[C@@H](NC(=O)[C@H](CCC(=O)O)NC(=O)[C@H](CCC(=O)O)NC(=O)[C@H](CC(=O)O)NC(=O)[C@@H](N)CC(C)C)[C@@H](C)O)C(=O)O
- IC50 [1]: 0.02 µM

Molecule: CC(C)C[C@@H]1NC(=O)[C@H](CC(=O)O)NC(=O)[C@@H]2CCCN2C(=O)[C@@H](N)CSCc2cccc(c2)CSC[C@@H](C(N)=O)NC1=O (H-CPDLC-NH2; linker 1-5 via mXylylene)
- Kd (Kelch-like protein 20): 0.6 µM

Molecule: H-EPEEPEADQHQ-OH
- Kd (Kelch-like protein 3): 0.69 µM

Next, values leading:

- IC50 (Keap1/Nrf2): 34.4 µM
Molecule: Ac-DPSTGEL-OH

- Ki (Kelch-like protein 12 [2]): 21 µM
- Kd (Kelch-like protein 12 [3]): 15 µM
Molecule: H-PGAPPGRDLASVP-OH

— ChEMBL document CHEMBL5608164, “Targeting kelch-like (KLHL) proteins: achievements, challenges and perspectives” (Eur J Med Chem, 2024)
